The target of one data set is T1, PD1 (Homo sapiens, UniProt Q15116).
T1 construct: expressed in transfected cells; host or cells: Jurkat cells (PD1-EFC and SHP1-EFC) co-cultured with PDL1-presenting U2OS cells
Kind of data set: PD1/PDL1 cell reporter assay (PathHunter, Jurkat PD1/SHP1 EFC cells co-incubated with PDL1-presenting U2OS cells). The note with it: peptide conjugates at 3.6 μM, 10.8 μM, 32.5 μM in triplicate; FIG. 10. Type of data set: cell-based. On the procedure: Jurkat cells expressing PD1 and SHP1 proteins, each fused to a fragment of enzyme fragment complementation (EFC) system, were co-incubated with PDL1-presenting U2OS cells. […] Cells in co-culture were incubated at room temperature (RT) for 2 h (PD1 assay). The assay signal was generated using the PathHunter Bioassay Detection kit. Microplates were read following signal generation using a PerkinElmer ENVISION™ instrument for chemiluminescent signal detection. Inhibitory peptides or antibodies added to the culture result in reduction of light signal. The degree of inhibition was calculated using the following formula: Percent inhibition=100%×[1−(mean RLU of test sample−mean RLU of vehicle control)/mean RLU of EC80 control−mean RLU of vehicle control)].
Peptide conjugates BT1-BT11 were tested at three concentrations: 3.6 μM, 10.8 μM, 32.5 μM in triplicate wells. peptide conjugates were dissolved in DMSO and serially diluted in assay buffer. The highest concentration that can be tested in this assay was 32.5 μM peptide conjugate (1% DMSO).
Peptides LD12 (SEQ ID NO:9), LD10 (SEQ ID NO:1), and LD16 (SEQ ID NO:10) were tested at three concentrations: 11 μM, 33 μM, 100 μM in triplicate. LD peptides were dissolved in water and serially diluted in assay buffer. RLUs were measured at the end of the assay, and % Inhibition (% Efficiency) was calculated using the formula above.
A general note: A reporter such as luciferase makes a cellular process visible.

A short description of data set [1]: Precipitation on dilution in assay buffer. It is filed as physicochemical. The note with it: 100 μM final in assay buffer. How it is done:
FIG. 1 is a graph reporting the results of a TR-FRET assay testing the ability of peptide conjugates and individual peptides to affect the interaction between LAG3 and MHC-II. * indicates precipitation when diluted in assay buffer at 1 mM (100 μM final).

Data set [2] concerns the target T2, interaction between LAG3 and MHC-II (Homo sapiens, UniProt P18627).
T2 construct: purchased Cisbio US Inc
T2 sequence (P18627 23-450 limits assumed): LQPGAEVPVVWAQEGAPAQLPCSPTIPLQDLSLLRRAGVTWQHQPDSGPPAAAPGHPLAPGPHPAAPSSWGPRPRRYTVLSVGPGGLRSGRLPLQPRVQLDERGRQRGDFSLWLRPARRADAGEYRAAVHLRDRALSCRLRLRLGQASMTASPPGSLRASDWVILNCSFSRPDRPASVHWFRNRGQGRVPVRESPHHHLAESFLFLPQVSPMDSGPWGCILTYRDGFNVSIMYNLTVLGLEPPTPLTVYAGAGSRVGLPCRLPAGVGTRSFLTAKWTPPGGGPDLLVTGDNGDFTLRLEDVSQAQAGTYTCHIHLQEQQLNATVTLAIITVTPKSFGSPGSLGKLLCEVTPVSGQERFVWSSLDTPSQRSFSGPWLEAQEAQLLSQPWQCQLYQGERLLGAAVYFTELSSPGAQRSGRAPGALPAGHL
Nature of the data set: HTRF (TR-FRET) LAG3/MHC-II binding assay. The note with it: for response in dilution curve (HTRF signal): 10-fold dilutions starting at 100 μM or 10 μM, FIGS. 2A-9B; for effect on HTRF signal: tested at 100 μM, 10 μM, and 1 μM, FIG. 1. The text has this:
A Homogeneous Time-resolved Fluorescence (HTRF) LAG3/MHC-II binding assay (Cisbio US Inc.) was used to measure the interaction between MHC-II and LAG3 in the presence of various peptides and peptide conjugates. In this assay, the interaction between Tag1-LAG3 and Tag2-MHC-II is detected by using anti-Tag1-Terbium (HTRF donor) and anti-Tag2-XL665 (HTRF acceptor). When the donor and acceptor antibodies are brought into close proximity due to LAG3 and MHC-II binding, excitation of the donor antibody triggers fluorescent resonance energy transfer (FRET) towards the acceptor antibody, which in turn emits specifically at 665 nm. This specific signal is directly proportional to the extent of LAG3/MHC-II interaction. Thus, an agent that blocks the interaction between LAG3 and MHC-II will cause a reduction in HTRF ratio.
Each of peptide conjugates BT1, BT2, BT3, BT4, BT5, BT6, BT7, BT8, BT9, and peptides LG11 (LAG3-11), LAG3-56 (SEQ ID NO:5), and LAG3-42 (SEQ ID NO:6) was tested at 3 concentrations: 100 μM, 10 μM, and 1 μM. The dashed-lines represent the HTRF ratio readout of a control ovalbumin peptide (OVA, SEQ ID NO:7) (baseline) at the respective concentrations.
peptide conjugates and LG peptides were tested in full dilution curves in the LAG3:MHCII TR-FRET Assay described above to estimate IC50. peptide conjugates were tested starting at 100 μM or 10 μM. LG peptides were tested starting at 100 μM.

pIC50: −log10 of the molar value. Non-standard residues stand in square brackets, D forms with d. Residues, ends and D or L forms follow the SMILES beside them. PEG4 = NCCOCCOCCOCCOCCC(=O)O

T1 sequence (Q15116 25-288): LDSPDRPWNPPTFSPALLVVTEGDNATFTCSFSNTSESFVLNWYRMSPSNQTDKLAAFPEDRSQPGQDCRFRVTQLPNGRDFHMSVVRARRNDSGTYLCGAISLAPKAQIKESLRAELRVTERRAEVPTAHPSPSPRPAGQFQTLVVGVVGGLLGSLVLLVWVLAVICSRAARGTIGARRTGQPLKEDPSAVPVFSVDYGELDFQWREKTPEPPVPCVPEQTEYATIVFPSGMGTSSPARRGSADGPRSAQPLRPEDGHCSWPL

As to `CC[C@H](C)[C@H](NC(=O)[C@H](CO)NC(=O)[C@@H](NC(=O)[C@H](CC(C)C)NC(=O)[C@H](CCCNC(=N)N)NC(=O)[C@@H](NC(=O)[C@H](CC(N)=O)NC(=O)[C@@H](NC(=O)[C@@H](NC(=O)[C@H](C)NC(=O)[C@@H]1CCCN1C(=O)[C@H](CC(C)C)NC(=O)[C@H](CO)NC(=O)[C@H](CCC(N)=O)NC(=O)CCOCCOCCOCCOCCNC(=O)[C@H](Cc1c[nH]c2ccccc12)NC(=O)[C@H](CCC(=O)O)NC(=O)CNC(=O)[C@@H](NC(=O)CNC(=O)[C@H](CCC(N)=O)NC(=O)[C@H](Cc1c[nH]c2ccccc12)NC(=O)[C@H](Cc1c[nH]c2ccccc12)NC(=O)[C@H](CC(=O)O)NC(=O)[C@H](CCC(=O)O)NC(=O)[C@@H]1CCCN1C(=O)[C@H](Cc1c[nH]c2ccccc12)NC(=O)[C@H](Cc1c[nH]cn1)NC(=O)[C@H](CC(C)C)NC(=O)[C@@H]1CCCN1C(=O)[C@H](CCC(=O)O)NC(=O)[C@H](Cc1c[nH]c2ccccc12)NC(=O)[C@@H]1CCCN1C(=O)[C@H](C)NC(=O)[C@@H](N)CO)[C@@H](C)O)[C@@H](C)O)[C@@H](C)CC)C(C)C)[C@@H](C)O)C(=O)N[C@@H](CCC(N)=O)C(=O)NCC(=O)N[C@H](C(=O)N[C@H](CO)C(N)=O)[C@@H](C)O` [BT4] (H-SAPWEPLHWPEDWWQGTGEW[PEG4]QSLPATINVRLTSIQGT[dS]-NH2), the “inhibition of PD1 activity (percent inhibition of light signal)” value at PD1 is “did not show inhibition at any of the tested concentrations”. The “precipitation in assay buffer” value in data set [1] is “precipitation occurred at 100 μM”. In data set [2], the “response in dilution curve (HTRF signal)” value is reported as “reduced the HTRF signal at 10 μM” and the “effect on HTRF signal” value is “reduced the HTRF signal”.

Consider `CC[C@H](C)[C@H](NC(=O)[C@H](CO)NC(=O)[C@@H](NC(=O)[C@H](CC(C)C)NC(=O)[C@H](CCCNC(=N)N)NC(=O)[C@@H](NC(=O)[C@H](CC(N)=O)NC(=O)[C@@H](NC(=O)[C@@H](NC(=O)[C@H](C)NC(=O)[C@@H]1CCCN1C(=O)[C@H](CC(C)C)NC(=O)[C@H](CO)NC(=O)[C@H](CCC(N)=O)NC(=O)CCOCCOCCOCCOCCNC(=O)[C@H](CO)NC(=O)[C@H](C)NC(=O)[C@@H]1CCCN1C(=O)[C@H](Cc1c[nH]c2ccccc12)NC(=O)[C@H](CCC(=O)O)NC(=O)[C@@H]1CCCN1C(=O)[C@H](CC(C)C)NC(=O)[C@H](Cc1c[nH]cn1)NC(=O)[C@H](Cc1c[nH]c2ccccc12)NC(=O)[C@@H]1CCCN1C(=O)[C@H](CCC(=O)O)NC(=O)[C@H](CC(=O)O)NC(=O)[C@H](Cc1c[nH]c2ccccc12)NC(=O)[C@H](Cc1c[nH]c2ccccc12)NC(=O)[C@H](CCC(N)=O)NC(=O)CNC(=O)[C@@H](NC(=O)CNC(=O)[C@H](CCC(=O)O)NC(=O)[C@@H](N)Cc1c[nH]c2ccccc12)[C@@H](C)O)[C@@H](C)O)[C@@H](C)CC)C(C)C)[C@@H](C)O)C(=O)N[C@@H](CCC(N)=O)C(=O)NCC(=O)N[C@H](C(=O)N[C@H](CO)C(N)=O)[C@@H](C)O` [BT5] (H-WEGTGQWWDEPWHLPEWPAS[PEG4]QSLPATINVRLTSIQGT[dS]-NH2), for which the “inhibition of PD1 activity (percent inhibition of light signal)” value on PD1 was “did not show inhibition at any of the tested concentrations”. In data set [1], the “precipitation in assay buffer” value is listed as “precipitation occurred at 100 μM”. In data set [2], the “response in dilution curve (HTRF signal)” value is “reduced the HTRF signal at 10 μM” and the “effect on HTRF signal” value is on record as “reduced the HTRF signal”.

For the compound `CC[C@H](C)[C@H](NC(=O)[C@H](CCC(N)=O)NC(=O)CNC(=O)[C@@H](NC(=O)[C@@H](CO)NC(=O)CCOCCOCCOCCOCCNC(=O)[C@H](Cc1c[nH]c2ccccc12)NC(=O)[C@H](CCC(=O)O)NC(=O)CNC(=O)[C@@H](NC(=O)CNC(=O)[C@H](CCC(N)=O)NC(=O)[C@H](Cc1c[nH]c2ccccc12)NC(=O)[C@H](Cc1c[nH]c2ccccc12)NC(=O)[C@H](CC(=O)O)NC(=O)[C@H](CCC(=O)O)NC(=O)[C@@H]1CCCN1C(=O)[C@H](Cc1c[nH]c2ccccc12)NC(=O)[C@H](Cc1c[nH]cn1)NC(=O)[C@H](CC(C)C)NC(=O)[C@@H]1CCCN1C(=O)[C@H](CCC(=O)O)NC(=O)[C@H](Cc1c[nH]c2ccccc12)NC(=O)[C@@H]1CCCN1C(=O)[C@H](C)NC(=O)[C@@H](N)CO)[C@@H](C)O)[C@@H](C)O)C(=O)N[C@@H](CO)C(=O)N[C@H](C(=O)N[C@@H](CC(C)C)C(=O)N[C@@H](CCCNC(=N)N)C(=O)N[C@H](C(=O)N[C@@H](CC(N)=O)C(=O)N[C@H](C(=O)N[C@H](C(=O)N[C@@H](C)C(=O)N1CCC[C@H]1C(=O)N[C@@H](CC(C)C)C(=O)N[C@@H](CO)C(=O)N[C@@H](CCC(N)=O)C(N)=O)[C@@H](C)O)[C@@H](C)CC)C(C)C)[C@@H](C)O` [BT2], the “inhibition of PD1 activity (percent inhibition of light signal)” value at PD1 is “did not show inhibition at any of the tested concentrations”. For the same compound, the “precipitation in assay buffer” value in data set [1] is recorded as “precipitation occurred at 100 μM”. In data set [2], the “response in dilution curve (HTRF signal)” value was “reduced the HTRF signal at 10 μM” and the “effect on HTRF signal” value was “reduced the HTRF signal”. Besides, the pIC50 – broadly, the negative decadic logarithm of the IC50, by convention in mol/L – in data set [2] (LAG3:MHCII TR-FRET full dilution curves) was 5.07.

As for “H2N-(dS)TGQISTLRVNITAPLSQ^1-PEG4-SAPWEPLHWPEDWWQGTGEW^3-amide [BT1]”, the “inhibition of PD1 activity (percent inhibition of light signal)” value on PD1 is listed as “did not show inhibition at any of the tested concentrations”. Besides, the “precipitation in assay buffer” value in data set [1] is “precipitation occurred at 100 μM”. For the same compound, in data set [2], the “response in dilution curve (HTRF signal)” value is “reduced the HTRF signal at 10 μM” and the “effect on HTRF signal” value is recorded as “reduced the HTRF signal”.

For the origin of these results see patent publication US11338040B2, “Immunomodulatory compounds” (Leidos, Inc., priority 2020, dated 2022).
